The text below walks through data of patent publication US20250228864A1, “THERAPIES FOR THE TREATMENT OF INFLAMMATORY BOWEL DISEASE” (Gilead Sciences, Inc., priority 2023, published 2025).

Data set [1] concerns IL-10−/− mouse colitis model. The experiment in a line: Example 3: Formula (III) and anti-p40 combination in IL-10−/− mouse colitis model. Conditions: 21 days; Formula (III) 0.005% in chow, anti-p40 IP; vs no treatment control / either pathway alone. It is filed as in vivo. Here is the method:
The following experiments were run to evaluate the effects of a combination treatment of Formula (III) in combination with an anti-p40 antibody on the IL-10−/− mouse colitis model compared to the single treatment alone.
Female IL-10 deficient C57CL/6 mice (aged 12 weeks at study inception) were used in this study. All animal experiments were conducted according to Swiss animal well fare law and approved by the local animal welfare authority of Zurich County (Tierversuchskommission Zürich, Zurich, Switzerland, License No. ZH256-2014).
Mice were administered either standard chow diet (Harlan Teklad Global Diets 2014, TD2014) or standard chow diet plus 0.005% of Formula (III) in the chow. Formula (III)'s schedule was ad libitum while the anti-p40 antibody was administered via an intraperitoneal injection on day 1 and then every four days for three weeks.
The compound was added and mixed to the chow powder at 0.125% concentration, anti-p40 antibody was diluted in phosphate buffered saline (2 mg/mL) (anti-p40 antibody is a murine surrogate of ustekinumab) then dosed at either 2 mg/kg (low dose) or 4 mg/kg (high dose) every four days by intraperitoneal injection. […] The mice were then treated for three (3) weeks (21-days). On Day 21, mice were sacrificed, blood and tissue samples were collected for further analysis.
Experiments were conducted as describe in Experiment 2.

Data set [2] in a line: First-in-human Part A: plasma PK after single ascending doses of Formula (III). It is filed as in vivo. Here is the method:
This was a 3-part study to evaluate pharmacokinetics, safety, tolerability, and pharmacodynamics of the Formula (III) compound in healthy volunteers. • To understand the single-dose PK, safety, tolerability, and PD of Formula (III) and its active metabolite, subjects in Part A received a single dose of Formula (III) in the fasting state in a dose-escalating manner. […]
Formula (III) is a prodrug of Formula (I). Plasma concentrations of Formula (III) metabolite was determined, and PK parameters estimated. Plasma concentrations of Formula (III) and/or its metabolites were determined, and PK explored, as appropriate.
Concentrations of Formula (III) and the metabolite, in plasma samples were determined using fully validated high-performance liquid chromatography-tandem mass spectrometry (LC-MS/MS) bioanalytical methods. All samples were analyzed in the timeframe supported by frozen stability storage data. […]

Consider `CCOC(=O)[C@H](Cc1ccc(-n2c(=O)c3ccncc3n(C)c2=O)c2ncccc12)NC(=O)c1c(C)cc(N2CCOC[C@@H]2C(F)(F)F)cc1F` (atropisomer, axis not shown) [Formula (III)], for which the body weight loss entry in data set [1] is “improved body weight loss”. The “plasma exposures of the prodrug Formula (III) compared with the active metabolite” value in data set [2] was “negligible”.
